Assay results published in patent US7858635B2 (priority 2005, dated 2010).

Tests used:
[1] = biological target: T1, M1 muscarinic receptor (Homo sapiens, UniProt P11229); assay: Functional mobilization of intracellular calcium (FLIPR, Fluo-3), M1-CHO cells; format: cell-based; settings: compound nos. 1-454; for Emax: read-out: M1 Efficacy
T1 construct: expressed in transfected cells; host or cells: CHO cells (M1-CHO, under zeocin and G418 selection)
T1 sequence (P11229 1-460): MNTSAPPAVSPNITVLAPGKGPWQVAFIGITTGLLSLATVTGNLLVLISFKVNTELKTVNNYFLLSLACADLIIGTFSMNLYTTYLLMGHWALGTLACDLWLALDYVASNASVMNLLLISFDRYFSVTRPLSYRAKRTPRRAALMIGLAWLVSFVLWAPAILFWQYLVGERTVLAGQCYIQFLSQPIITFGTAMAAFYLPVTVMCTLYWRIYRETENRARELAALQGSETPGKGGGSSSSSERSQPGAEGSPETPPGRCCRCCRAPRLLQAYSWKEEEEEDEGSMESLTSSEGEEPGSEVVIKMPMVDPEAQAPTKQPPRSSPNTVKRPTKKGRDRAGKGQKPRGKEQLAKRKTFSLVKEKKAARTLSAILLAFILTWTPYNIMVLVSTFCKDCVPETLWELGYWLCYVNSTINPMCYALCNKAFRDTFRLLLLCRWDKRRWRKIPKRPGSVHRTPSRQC
In short: (§1)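 Intracellular calcium was tracked by fluorescence (488/540 nm) over 60 sec after compound addition to dye-loaded CHO cells expressing the receptor. Inhibitory activity used a 15 min pre-incubation before carbachol at the subtype EC80.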

[2] = biological target: T2, M4 muscarinic receptor (Homo sapiens, UniProt P08173); assay: Functional mobilization of intracellular calcium (FLIPR, Fluo-3), M4-CHO cells; format: cell-based; settings: compound nos. 1-454; for Emax: read-out: M4 Efficacy
T2 construct: expressed in transfected cells; host or cells: CHO cells (M4-CHO, under puromycin, zeocin and blasticidin selection)
T2 sequence (P08173 1-479): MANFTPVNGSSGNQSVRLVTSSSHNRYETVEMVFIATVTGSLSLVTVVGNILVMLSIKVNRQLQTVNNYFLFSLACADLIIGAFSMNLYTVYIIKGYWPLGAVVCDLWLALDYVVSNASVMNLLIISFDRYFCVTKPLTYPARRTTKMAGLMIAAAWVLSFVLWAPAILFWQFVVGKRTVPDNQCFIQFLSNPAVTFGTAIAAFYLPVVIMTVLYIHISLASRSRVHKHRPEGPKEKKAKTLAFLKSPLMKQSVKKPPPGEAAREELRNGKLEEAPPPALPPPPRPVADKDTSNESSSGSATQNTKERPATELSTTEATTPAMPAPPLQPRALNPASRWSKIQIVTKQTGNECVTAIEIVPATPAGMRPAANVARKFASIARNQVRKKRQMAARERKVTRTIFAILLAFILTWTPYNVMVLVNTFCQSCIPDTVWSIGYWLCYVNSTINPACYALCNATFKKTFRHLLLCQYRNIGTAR
In short: as §1

[3] = 100% efficacy is the maximum response obtained with the Carbachol control

| Compound | M1 Activity [1] | Emax [1, 3] | M4 Activity [2] | Emax [2, 3] | M1 Efficacy [1, 3] | M4 Efficacy [2, 3] |
| --- | --- | --- | --- | --- | --- | --- |
| c1ccc2c(c1)NCC21CCN(C2CC3CCC(C3)C2)CC1 (stereo not shown) [compound 420] | ++ (activity was measured to be between 0.7 μM and 3.0 μM) | < 65% | + (activity was measured to be greater than or equal to 4.0 μM) | < 55% | – | – |
| CC(=O)NC1CC2(CCN(C[C@@H]3C[C@H]4C=C[C@H]3C4)CC2)c2ccccc21 (stereo partly shown) [compound 421] | + (activity was measured to be greater than or equal to 3.0 μM) | – | + (activity was measured to be greater than or equal to 4.0 μM) | – | + (efficacy was calculated to be 65% or less) | + (efficacy was calculated to be 55% or less) |
| COCCOC(=O)N1CC2(CCN(C3CC4CCC(C3)N4C(=O)OC(C)C)CC2)c2cc(F)ccc21 (stereo not shown) [compound 422] | +++ (activity was measured to be less than or equal to 0.7 μM) | < 65% | + (activity was measured to be greater than or equal to 4.0 μM) | < 55% | – | – |
| COC(=O)N1CCC(CN2CCC3(CC2)CN(C(C)=O)c2ccc(C)cc23)CC1 [compound 423] | ++ (activity was measured to be between 0.7 μM and 3.0 μM) | < 65% | + (activity was measured to be greater than or equal to 4.0 μM) | < 55% | – | – |
| CC(=O)N1CC2(CCN(C3CCN(C(=O)O[C@@H]4CCOC4)CC3)CC2)c2cc(F)ccc21 [compound 424] | + (activity was measured to be greater than or equal to 3.0 μM) | < 65% | + (activity was measured to be greater than or equal to 4.0 μM) | < 55% | – | – |
| CC(=O)N1CC2(CCN(C3CCCC(C(F)(F)F)C3)CC2)c2cc(F)ccc21 (stereo not shown) [compound 425] | + (activity was measured to be greater than or equal to 3.0 μM) | < 65% | + (activity was measured to be greater than or equal to 4.0 μM) | < 55% | – | – |
| CCOC(=O)N1CCC(N2CCC3(CC2)CN(C(C)=O)c2ccc(C4=CCCC4)cc23)CC1 [compound 426] | + (activity was measured to be greater than or equal to 3.0 μM) | < 65% | + (activity was measured to be greater than or equal to 4.0 μM) | < 55% | – | – |
| CCOC(=O)N1CCC(N2CCC3(CC2)CN(C(=O)OCC)c2ccc(F)cc23)CC1 [compound 427] | ++ (activity was measured to be between 0.7 μM and 3.0 μM) | < 65% | + (activity was measured to be greater than or equal to 4.0 μM) | < 55% | – | – |
| CCOC(=O)N1CCC(N2CCC3(CC2)CN(C(=O)O[C@H]2CCOC2)c2ccc(F)cc23)CC1 [compound 428] | ++ (activity was measured to be between 0.7 μM and 3.0 μM) | < 65% | + (activity was measured to be greater than or equal to 4.0 μM) | < 55% | – | – |
| Fc1ccc2c(c1)C1(CCN(C[C@@H]3C[C@H]4CC[C@H]3O4)CC1)CN2 [compound 429] | ++ (activity was measured to be between 0.7 μM and 3.0 μM) | < 65% | + (activity was measured to be greater than or equal to 4.0 μM) | < 55% | – | – |
| CCOC(=O)N1CCC(N2CCC3(CC2)C[C@H](NC(C)=O)c2ccccc23)CC1 [compound 430] | ++ (activity was measured to be between 0.7 μM and 3.0 μM) | < 65% | + (activity was measured to be greater than or equal to 4.0 μM) | < 55% | – | – |
| CC(=O)N1CC2(CCN(C3CCN(c4nccs4)CC3)CC2)c2cc(F)ccc21 [compound 432] | +++ (activity was measured to be less than or equal to 0.7 μM) | 65 to 85% | +++ (activity was measured to be less than or equal to 0.1 μM) | 55 to 70% | – | – |
| CC(=O)N1CC2(CCN(C3CCC4(CC3)CC(C)=NO4)CC2)c2cc(F)ccc21 (stereo not shown) [compound 433] | ++ (activity was measured to be between 0.7 μM and 3.0 μM) | 65 to 85% | ++ (activity was measured to be between 0.1 μM and 4.0 μM) | < 55% | – | – |
| CN(C)C(=O)N1CC2(CCN(C3CCN(c4ccccc4F)CC3)CC2)c2cc(F)ccc21 [compound 437] | ++ (activity was measured to be between 0.7 μM and 3.0 μM) | 65 to 85% | ++ (activity was measured to be between 0.1 μM and 4.0 μM) | < 55% | – | – |
| CN(C)C(=O)N1CC2(CCN(C3CCN(c4cccc(F)c4)CC3)CC2)c2cc(F)ccc21 [compound 438] | ++ (activity was measured to be between 0.7 μM and 3.0 μM) | 65 to 85% | +++ (activity was measured to be less than or equal to 0.1 μM) | 55 to 70% | – | – |
| CN(C)C(=O)N1CC2(CCN(C3CCN(c4ccc(F)cc4)CC3)CC2)c2cc(F)ccc21 [compound 439] | ++ (activity was measured to be between 0.7 μM and 3.0 μM) | 65 to 85% | +++ (activity was measured to be less than or equal to 0.1 μM) | < 55% | – | – |
| COc1ccccc1N1CCC(N2CCC3(CC2)CN(C(=O)N(C)C)c2ccc(F)cc23)CC1 [compound 440] | ++ (activity was measured to be between 0.7 μM and 3.0 μM) | 65 to 85% | ++ (activity was measured to be between 0.1 μM and 4.0 μM) | 55 to 70% | – | – |
| COc1cccc(N2CCC(N3CCC4(CC3)CN(C(=O)N(C)C)c3ccc(F)cc34)CC2)c1 [compound 441] | ++ (activity was measured to be between 0.7 μM and 3.0 μM) | 65 to 85% | +++ (activity was measured to be less than or equal to 0.1 μM) | 55 to 70% | – | – |
| COc1ccc(N2CCC(N3CCC4(CC3)CN(C(=O)N(C)C)c3ccc(F)cc34)CC2)cc1 [compound 442] | ++ (activity was measured to be between 0.7 μM and 3.0 μM) | 65 to 85% | ++ (activity was measured to be between 0.1 μM and 4.0 μM) | 55 to 70% | – | – |
| COc1ccc(F)cc1N1CCC(N2CCC3(CC2)CN(C(=O)N(C)C)c2ccc(F)cc23)CC1 [compound 443] | ++ (activity was measured to be between 0.7 μM and 3.0 μM) | 65 to 85% | ++ (activity was measured to be between 0.1 μM and 4.0 μM) | 55 to 70% | – | – |
| CN(C)C(=O)N1CC2(CCN(C3CCN(c4cnccn4)CC3)CC2)c2cc(F)ccc21 [compound 444] | +++ (activity was measured to be less than or equal to 0.7 μM) | 65 to 85% | +++ (activity was measured to be less than or equal to 0.1 μM) | 55 to 70% | – | – |
| CN(C)C(=O)N1CC2(CCN(C3CCN(c4ncccn4)CC3)CC2)c2cc(F)ccc21 [compound 445] | ++ (activity was measured to be between 0.7 μM and 3.0 μM) | 65 to 85% | +++ (activity was measured to be less than or equal to 0.1 μM) | 55 to 70% | – | – |
| CN(C)C(=O)N1CC2(CCN(C3CCN(c4cncnc4)CC3)CC2)c2cc(F)ccc21 [compound 446] | ++ (activity was measured to be between 0.7 μM and 3.0 μM) | 65 to 85% | +++ (activity was measured to be less than or equal to 0.1 μM) | 55 to 70% | – | – |
| CN(C)C(=O)N1CC2(CCN(C3CCN(c4nccs4)CC3)CC2)c2cc(F)ccc21 [compound 447] | +++ (activity was measured to be less than or equal to 0.7 μM) | 65 to 85% | +++ (activity was measured to be less than or equal to 0.1 μM) | 55 to 70% | – | – |
| CN(C)C(=O)N1CC2(CCN(CC3CCN(c4cnccn4)C3)CC2)c2cc(F)ccc21 (stereo not shown) [compound 448] | +++ (activity was measured to be less than or equal to 0.7 μM) | > 85% | +++ (activity was measured to be less than or equal to 0.1 μM) | 55 to 70% | – | – |
